Results taken from patent US20080039455A1, “PYRAZOLOPYRIMIDINES AND SALTS THEREOF, PHARMACEUTICAL COMPOSITIONS COMPRISING SAME, METHODS OF PREPARING SAME AND USES OF SAME” (priority 2006, published 2008).
Structures can show the parent of a compound that is named as a salt.

Target: T1, human recombinant ALK1 (GST fused to ALK1 intracellular domain [His142-Gln503]) (Homo sapiens, UniProt P37023)
T1 construct: GST fused to ALK1 intracellular domain [His142-Gln503]; made in house
T1 sequence (P37023 142-503): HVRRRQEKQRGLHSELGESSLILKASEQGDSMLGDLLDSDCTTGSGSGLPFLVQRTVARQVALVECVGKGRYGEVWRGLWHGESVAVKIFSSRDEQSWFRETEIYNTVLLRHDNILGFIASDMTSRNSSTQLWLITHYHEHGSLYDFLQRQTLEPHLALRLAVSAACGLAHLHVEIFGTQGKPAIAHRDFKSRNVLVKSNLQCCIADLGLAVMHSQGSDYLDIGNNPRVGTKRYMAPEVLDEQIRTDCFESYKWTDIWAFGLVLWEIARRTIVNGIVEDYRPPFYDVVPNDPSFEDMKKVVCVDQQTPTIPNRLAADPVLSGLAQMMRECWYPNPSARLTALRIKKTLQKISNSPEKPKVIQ
Assay: ALK1-Kinase Flashplate-Assay
Format: biochemical
Details: 0.5 μM ATP, biotinylated α-casein substrate; read-out: Assay 1 (ALK1-Kinase Flashplate-Assay IC50 class)
Method in brief: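 Radiometric Flashplate assay at 20 °C: GST-ALK1 intracellular domain (5 ng/well) with 1 μM biotinylated bovine α-casein, 0.5 μM ATP plus [γ-33P]ATP in Tris pH 8.0, 1 mM MnCl2, 1% or 5% DMSO, 60 min. Normalised to no-inhibitor (0%) and 10 mM EDTA (100%); IC50 by 4-parameter fit.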

Row | Structure (SMILES) | IC50 [nM]
1 | NC(=O)c1cccc(-c2cnn3ccc(NCc4cccnc4)nc23)c1 [Example 223, 3-{5-[(Pyridin-3-ylmethyl)-amino]-pyrazolo[1,5-a]pyrimidin-3-yl}-benzamide] | 1000 to 10000
2 | COc1cc(Nc2ccn3ncc(-c4cccc(C(N)=O)c4)c3n2)cc(OC)c1OC [Example 176, 3-[5-(3,4,5-Trimethoxy-phenylamino)-pyrazolo[1,5-a]pyrimidin-3-yl]-benzamide] | 1000 to 10000
3 | Cc1ccc(Nc2ccn3ncc(-c4cccc(NS(C)(=O)=O)c4)c3n2)cc1NS(C)(=O)=O [Example 209, N-{5-[3-(3-Methanesulfonylamino-phenyl)-pyrazolo[1,5-a]pyrimidin-5-ylamino]-2-methyl-phenyl]-methanesulfonamide] | < 1000
4 | COc1ccc(Nc2ccn3ncc(-c4ccc(O)cc4)c3n2)cn1 [Example 13, 4-[5-(6-Methoxy-pyridin-3-ylamino)-pyrazolo[1,5-a]pyrimidin-3-yl]-phenol] | 1000 to 10000
5 | c1cncc(CNc2ccn3ncc(-c4cccc5ccccc45)c3n2)c1 [Example 377, (3-Naphthalen-1-yl-pyrazolo[1,5-a]pyrimidin-5-yl)-pyridin-3-ylmethyl-amine] | < 1000
6 | c1csc(-c2cnn3ccc(NC4CCCNC4)nc23)c1 (stereo not shown) [Example 496, Piperidin-3-yl-(3-thiophen-2-yl-pyrazolo[1,5-a]pyrimidin-5-yl)-amine mono TFA salt] | 1000 to 10000
7 | COc1ccc(-c2cnn3ccc(NCc4cccnc4)nc23)cn1 [Example 171, [3-(6-Methoxy-pyridin-3-yl)-pyrazolo[1,5-a]pyrimidin-5-yl]-pyridin-3-ylmethyl-amine] | 1000 to 10000
8 | O=C(NCCO)c1cccc(-c2cnn3ccc(Nc4ccc(N5CCOCC5)cc4)nc23)c1 [Example 130, N-(2-Hydroxy-ethyl)-3-[5-(4-morpholin-4-yl-phenylamino)-pyrazolo[1,5-a]pyrimidin-3-yl]-benzamide] | 1000 to 10000
9 | Fc1ccccc1-c1cnn2ccc(NCc3cccnc3)nc12 [Example 408, [3-(2-Fluoro-phenyl)-pyrazolo[1,5-a]pyrimidin-5-yl]-pyridin-3-ylmethyl-amine] | 1000 to 10000
10 | N#Cc1ccc(-c2cnn3ccc(NCCO)nc23)cc1 [Example 119, 4-[5-(2-Hydroxy-ethylamino)-pyrazolo[1,5-a]pyrimidin-3-yl]-benzonitrile] | 1000 to 10000
11 | COc1ccc(-c2cnn3ccc(NCCO)nc23)cc1OC [Example 73, 2-[3-(3,4-Dimethoxy-phenyl)-pyrazolo[1,5-a]pyrimidin-5-ylamino]-ethanol] | < 1000
12 | OCc1cccc(-c2cnn3ccc(NC4CCC(O)CC4)nc23)c1 (stereo not shown) [Example 158, 4-[3-(3-Hydroxymethyl-phenyl)-pyrazolo[1,5-a]pyrimidin-5-ylamino]-cyclohexanol] | 1000 to 10000
13 | COc1cc(-c2cnn3ccc(Nc4ccc(C)c(NS(C)(=O)=O)c4)nc23)ccc1O [Example 151] | < 1000
14 | CN(C)CCNc1ccn2ncc(-c3ccc(C(=O)O)cc3)c2n1 [Example 136, 4-[5-(2-Dimethylamino-ethylamino)-pyrazolo[1,5-a]pyrimidin-3-yl]-benzoic acid] | 1000 to 10000
15 | COc1cccc(-c2cnn3ccc(NCc4ccncc4)nc23)c1 [Example 215, [3-(3-Methoxy-phenyl)-pyrazolo[1,5-a]pyrimidin-5-yl]-pyridin-4-ylmethyl-amine] | 1000 to 10000
16 | Cc1ccc(Nc2ccn3ncc(-c4cnn(C)c4)c3n2)cc1NS(C)(=O)=O [Example 210, N-{2-Methyl-5-[3-(1-methyl-1H-pyrazol-4-yl)-pyrazolo[1,5-a]pyrimidin-5-ylamino]-phenyl}-methanesulfonamide] | < 1000

Row | Structure (SMILES) | IC50 [nM]
17 | CC(=O)Nc1cccc(-c2cnn3ccc(Nc4ccccc4)nc23)c1 [Example 283, N-[3-(5-Phenylamino-pyrazolo[1,5-a]pyrimidin-3-yl)-phenyl]-acetamide] | 1000 to 10000
18 | COc1ncc(-c2cnn3ccc(Nc4ccc(O)cc4)nc23)c(OC)n1 [Example 46, 4-[3-(2,4-Dimethoxy-pyrimidin-5-yl)-pyrazolo[1,5-a]pyrimidin-5-ylamino]-phenol] | < 1000
19 | Cn1cc(-c2cnn3ccc(NCc4cccnc4)nc23)cn1 [Example 230, [3-(1-Methyl-1H-pyrazol-4-yl)-pyrazolo[1,5-a]pyrimidin-5-yl]-pyridin-3-ylmethyl-amine] | 1000 to 10000
20 | Clc1cccc(-c2cnn3ccc(NCc4cccnc4)nc23)c1 [Example 402, [3-(3-Chloro-phenyl)-pyrazolo[1,5-a]pyrimidin-5-yl]-pyridin-3-ylmethyl-amine] | 1000 to 10000
21 | COc1ccc(-c2cnn3ccc(NCc4ccncc4)nc23)cc1OC [Example 65, [3-(3,4-Dimethoxy-phenyl)-pyrazolo[1,5-a]pyrimidin-5-yl]-pyridin-4-ylmethyl-amine] | < 1000
22 | COc1cccc(-c2cnn3ccc(Nc4ccc(NS(=O)(=O)c5ccc(C)cc5)cc4)nc23)c1 [Example 200, N-{4-[3-(3-Methoxy-phenyl)-pyrazolo[1,5-a]pyrimidin-5-ylamino]-phenyl}-4-methyl-benzenesulfonamide] | 1000 to 10000
23 | COc1ccc(-c2cnn3ccc(Nc4ccc(O)cc4)nc23)cn1 [Example 147, 4-[3-(6-Methoxy-pyridin-3-yl)-pyrazolo[1,5-a]pyrimidin-5-ylamino]-phenol] | < 1000
24 | Cc1ccc(Nc2ccn3ncc(-c4cccc(CO)c4)c3n2)cc1NS(C)(=O)=O [Example 431, N-{5-[3-(3-Hydroxymethyl-phenyl)-pyrazolo[1,5-a]pyrimidin-5-ylamino]-2-methyl-phenyl}-methanesulfonamide] | 1000 to 10000
25 | c1cc(CNc2ccn3ncc(-c4ccsc4)c3n2)ccn1 [Example 63, Pyridin-4-ylmethyl-(3-thiophen-3-yl-pyrazolo[1,5-a]pyrimidin-5-yl)-amine] | < 1000
26 | OCc1cccc(-c2cnn3ccc(NCc4cccnc4)nc23)c1 [Example 170, (3-{5-[(Pyridin-3-ylmethyl)-amino]-pyrazolo[1,5-a]pyrimidin-3-yl}-phenyl)-methanol] | 1000 to 10000
27 | COc1cc(-c2cnn3ccc(Nc4cccc(Cl)c4)nc23)cc(OC)c1OC [Example 306, (3-Chloro-phenyl)-[3-(3,4,5-trimethoxy-phenyl)-pyrazolo[1,5-a]pyrimidin-5-yl]-amine] | < 1000
28 | COc1ccc(Nc2ccn3ncc(-c4cnn(C)c4)c3n2)cn1 [Example 198, (6-Methoxy-pyridin-3-yl)-[3-(1-methyl-1H-pyrazol-4-yl)-pyrazolo[1,5-a]pyrimidin-5-yl]-amine] | < 1000
29 | O=C(O)c1ccc(-c2cnn3ccc(Nc4ccccc4)nc23)cc1 [Example 248, 4-(5-Phenylamino-pyrazolo[1,5-a]pyrimidin-3-yl)-benzoic acid] | 1000 to 10000
30 | Cc1ccc(S(=O)(=O)Nc2ccc(Nc3ccn4ncc(-c5ccc(C(=O)NCCN(C)C)cc5)c4n3)cc2)cc1 [Example 320, N-(2-Dimethylamino-ethyl)-4-{5-[4-(toluene-4-sulfonylamino)-phenylamino]-pyrazolo[1,5-a]pyrimidin-3-yl}-benzamide] | 1000 to 10000
31 | COc1ccc(-c2cnn3ccc(Nc4ccc(O)cc4)nc23)cc1 [Example 146, 4-[3-(4-Methoxy-phenyl)-pyrazolo[1,5-a]pyrimidin-5-ylamino]-phenol] | 1000 to 10000
